In US9061994B1, “Materials and methods useful to induce vacuolization, cell death, or a combination thereof” (The University of Toledo, priority 2011, dated 2015):

Assays:
[1] = test system: U251 glioblastoma cells; test: Sulforhodamine B (SRB) growth inhibition assay; type: cell-based, human; conditions: U251; 48 h SRB; Table 1, Table 2 (FIG. 64), FIG. 63
Protocol: Cells experiencing methuosis initially undergo extreme cytoplasmic vacuolization which can be readily assessed by phase contrast microscopy. As viability is compromised (usually between 24-48 h), the cells detach from the culture surface and lose membrane integrity. […] Although methuosis can occur in a broad spectrum of human tumor cell lines, SAR studies were carried out with U251 glioblastoma cells. Therefore, this cell line was used in the present evaluation.
Total protein in adherent cells was measured by the sulforhodamine B (SRB) colorimetric assay, following standard procedures for anticancer drug screening used by the U.S. National Cancer Institute. […] On the day after plating, four wells were assayed to establish a pre-drug (time-0) baseline. Test compounds were diluted as described above and added to the remaining wells. The medium and compounds were replenished after 24 hr. SRB assays were performed at a 48 h endpoint as described, using a SpectraMax Plus 384 plate reader (Molecular Devices, Sunnyvale, Calif.) to determine absorbance at 515 nm.
Cells were seeded in 96-well plates as described in the methods. After 24 h, each compound was added at the indicated concentrations and SRB assays were performed after an additional 48 h. Each point represents the mean±SD of values from four wells. The dotted line on each graph indicates the average absorbance of four wells sampled at time-0 (i.e., the time that the compounds were added).
The human U251 glioblastoma cell line was obtained from the DCT Tumor Repository (National Cancer Institute, Fredrick, Md.). […] All test compounds were dissolved in DMSO and serially diluted in DMSO so that the desired final drug concentrations could be achieved by making a 1/1000 dilution into the culture medium. One day after plating, four wells were assayed to establish a pre-drug (time-0) baseline. At the same time, fresh medium containing test compounds was added to the remaining wells. Control wells received DMSO alone. SRB assays were performed at a 48 h endpoint. To minimize the impact of potential variations in stability among the compounds, medium with test compound was replenished after the first 24 h.

[2] = test system: U251 glioblastoma cells; test: Cell cycle analysis by flow cytometry (DNA histograms); type: cell-based, human; conditions: 24 h, 3 μM (FIGS. 69A-69B)
[3] = Stability on storage in DMSO (1H NMR); type: physicochemical
Description: Derivatives substituted with hydroxyl-functionality were synthesized based upon the results obtained in previous SAR studies for 2-substituted indole. Subtle chemical modifications at this position can alter activity, and are sensitive to both steric and electronic properties. […] Previously prepared intermediate ethyl 5-methoxyindole-2-carboxylate (302) was reduced by LAH to 425, which was then protected by acetylating the primary hydroxyl group (426). The acetyl group was then hydrolyzed during the alkaline conditions used to quench the acidic reagents generated during Vilsmeier's step that produce aldehyde 427. […] Alcohol 425 was oxidized to 5-methoxyindole-2-carboxaldehyde (428) by MnO2 in EtOAc heated to reflux. The aldehyde was subjected toWittig conditions using phosphonium ylide (Ph3CHCO2C2H5) to produce the α,β-unsaturated ester 429, which was reduced to 2-hydroxypropylindole 430 using excess LAH. The primary hydroxyl group was protected as the O-acetate (431) under conditions of excess acetic anhydride, TEA and CH3CN. […] As anticipated, the O-acetyl group was hydrolyzed under these conditions.
5-Methoxy-2-hydroxymethylindole-3-carboxaldehyde 427 (75 mg, 0.37 mmol), 4-acetylpyridine (118 mg, […]), and piperidine (82.6 mg, […]) were dissolved in methanol (1 mL) and heated to reflux. The reaction mixture was stirred for 45 min during which the solution became bright orange. The flask was then removed from heat and allowed to stir for 1 h. A precipitate formed which was collected, washed with ice-cold MeOH (5 mL) and dried in a vacuum desiccator for 24 h to yield an orange solid (28 mg, 24%). mp 229-230° C. TLC Rf 0.65 (6% MeOH/DCM), 0.21 (80% EtOAc/hexanes). […] 13C NMR (150 MHz, d6-DMSO) δ 188.2, 155.2, 150.6, 148.0, 145.0, 139.3, 131.0, 126.7, 121.4, 113.8, 113.0, 111.6, 108.3, 103.4, 55.57, 55.32. Elemental analysis calculated for C18H16N2O3.0.033 MeOH: C, 70.00; H, 5.26; N, 9.05. Found: C, 69.61; H, 5.09; N, 8.90. […] When stored in its isolated precipitate form, this compound is stable.

[4] = test system: U251 glioblastoma cells; test: Effect of filipin, bafilomycin A1 or EHT 1864 on MIPP-induced vacuoles; type: cell-based, human; conditions: 10 μM MIPP with 12 μg/ml filipin, 0.1 μM bafilomycin A1 or 25 μM EHT 1864
Protocol: To inhibit clathrin-independent endocytosis, U251 cells were washed twice with serum-free DMEM, then pretreated for 30 min with DMEM+0.5% BSA in the presence or absence of 12 μg/ml filipin. Following the pretreatment, MIPP was added to the dishes at a final concentration of 10 μM and phase-contrast images were acquired 100 min later. To inhibit the vacuolar-type H^+ ATPase, U251 cells were pretreated for 1 h with 0.1 μM bafilomycin A1 or an equivalent volume of DMSO. At the end of the hour, 10 μM MIPP, or an equivalent volume of DMSO, was added without a medium change. Phase-contrast images of the cells were acquired 1 h after the addition of MIPP. […] The percentage of vacuolated cells in the population was determined by scoring at least 100 cells in multiple phase-contrast photomicrographs for each condition. Cells containing three or more phase-lucent vacuoles with diameters ≧0.5 μm or >10 smaller vacuoles (0.1-0.5 μm) were scored as positive. For comparison, the effect of EHT 1864 on Ras-induced vacuolization was also determined. […] After 24 h, phase-contrast images were taken and the number of vacuolated cells was scored as described above.

[5] = biological target: T1, porcine tubulin (Sus scrofa, UniProt P02550+P02554); test: Cell-free fluorescence-based tubulin polymerization assay; type: biochemical; conditions: final concentration 3 μM (FIG. 61)
T1 construct: purchased Cytoskeleton, Inc. BK011P
T1 sequence (P02550 whole entry): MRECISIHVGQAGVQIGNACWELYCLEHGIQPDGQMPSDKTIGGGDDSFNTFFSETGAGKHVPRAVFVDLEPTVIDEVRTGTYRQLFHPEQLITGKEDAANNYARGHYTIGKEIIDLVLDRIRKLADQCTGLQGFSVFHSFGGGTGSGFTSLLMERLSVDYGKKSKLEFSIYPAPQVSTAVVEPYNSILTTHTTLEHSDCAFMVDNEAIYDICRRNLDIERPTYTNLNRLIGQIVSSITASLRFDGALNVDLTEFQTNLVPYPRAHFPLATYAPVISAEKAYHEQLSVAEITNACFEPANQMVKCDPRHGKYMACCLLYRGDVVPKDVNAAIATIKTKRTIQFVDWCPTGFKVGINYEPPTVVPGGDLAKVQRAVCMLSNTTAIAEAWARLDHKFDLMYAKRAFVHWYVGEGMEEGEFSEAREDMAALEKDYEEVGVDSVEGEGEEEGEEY
T1 sequence (P02554 whole entry): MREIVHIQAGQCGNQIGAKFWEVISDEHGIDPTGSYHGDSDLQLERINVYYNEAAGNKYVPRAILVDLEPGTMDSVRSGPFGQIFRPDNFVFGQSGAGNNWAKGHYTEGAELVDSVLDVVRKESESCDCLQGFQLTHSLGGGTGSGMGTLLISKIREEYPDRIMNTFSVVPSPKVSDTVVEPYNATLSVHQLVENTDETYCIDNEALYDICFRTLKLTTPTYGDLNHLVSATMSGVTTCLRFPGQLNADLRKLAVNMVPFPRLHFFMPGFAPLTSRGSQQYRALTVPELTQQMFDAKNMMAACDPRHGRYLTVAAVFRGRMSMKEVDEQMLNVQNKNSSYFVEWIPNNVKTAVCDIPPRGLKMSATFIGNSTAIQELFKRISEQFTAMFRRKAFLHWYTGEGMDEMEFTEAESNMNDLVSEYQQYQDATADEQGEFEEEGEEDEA

[6] = test system: U251 glioblastoma cells; test: SAR comparison of methuosis induction (vacuolization, MTT viability, colony formation) versus MIPP; type: cell-based, human; conditions: 10 μM, morphology 24 h and 48 h, MTT 48 h, colony formation (FIGS. 36, 48)
Description: Analogs based on the α,β-unsaturated ketone core were designed from Claisen-Schmidt condensations between indole-3-carboxaldehydes and aromatic ketones. Such aldol condensations are known to proceed well employing secondary amines as catalysts. Initially, the orientation of the pyridine nitrogen was investigated.

[7] = Stability during workup, manipulation or storage; type: physicochemical; conditions: among ester series 120, 125, 310, 309
Protocol: Expanding previous SAR studies of 2-indolyl alkyl substitutions, additional functionalized probes were prepared as depicted in Schemes 4-7. […] Excellent regioselectivity was achieved by the di-lithio species derived from 418 and sec-butyllithium in THF at −40° C. Cyclization and deprotection occurred in a one-pot fashion with excess TFA affording 5-methoxy-2-trifluoromethylindole (203). Synthesis of aldehyde 204 and condensation to the final trifluoromethyl target 124 were accomplished by standard methods. Alkyl carboxylates (301-304) were synthesized from commercially available acid 300 by Fisher esterification conditions using their corresponding alcohols (Scheme 4E, FIG. 78). Formylation reactions to yield aldehydes 305-308, followed by Claisen-Schmidt condensation to provide 120, 125, 310, 309, were conducted as previously described. […] Without wishing to be bound by theory, it is believed this is owing to its better leaving group among this series.

With `COc1ccc2[nH]c(C(=O)[O-])c(/C=C/C(=O)c3ccncc3)c2c1.[Na+]` [402o, sodium trans-3-(5-methoxyindol-2-carboxylate-3-yl)-1-(4-pyridinyl)-2-propen-1-one] the “growth inhibitory (GI) activity, in words” value [1] was “either markedly attenuated or completely eliminated” and the “cell cycle distribution (G2/M, sub-G1/G0)” value [2] was “no detectable effect on cell cycle distribution”.
With `COc1ccc2[nH]c(CO)c(C=CC(=O)c3ccncc3)c2c1` [402p, 3-(2-hydroxymethyl-5-methoxy-1H-indole-3-yl)-1-(4-pyridinyl)-2-propen-1-one] the “stability in DMSO, in words” value ([3]; storage in DMSO) was “unstable when stored at rt in DMSO for 48 h”, the degraded ([3]; stored in d6-DMSO, after 48 h, 1H NMR) was about 50% and the “stability as isolated precipitate” value ([3]; stored in its isolated precipitate form) was “stable”.
In the case of `CO/C1=C\C(C)=C\[C@@H](C)[C@@H](O)[C@@H](C)C/C(C)=C/C=C/[C@H](OC)[C@@H]([C@@H](C)[C@@H](O)[C@H](C)[C@@]2(O)C[C@@H](O)[C@H](C)[C@@H](C(C)C)O2)OC1=O` [Baf-A, bafilomycin A1], the “effect on induction of vacuoles by MIPP” value [4] was “completely abrogated the ability of the cells to generate vacuoles when they were exposed to MIPP”.
With `O=c1cc(CN2CCOCC2)occ1OCCCCCSc1ccnc2cc(C(F)(F)F)ccc12` [EHT 1864] the “effect on induction of vacuoles by MIPP” value [4] was “no detectable effect on vacuole formation”.
With `COc1ccc2[nH]c(C)c(/C=C/C(=O)c3ccncc3)c2c1` [MOMIPP, trans-3-(5-methoxy-2-methyl-1H-indol-3-yl)-1-(4-pyridinyl)-2-propen-1-one] the “inhibition of tubulin polymerization” value [5] was “superimposable with the DMSO control”.
With `CN[C@H]1CCc2cc(OC)c(OC)c(OC)c2-c2ccc(OC)c(=O)cc21` [colcemid, reference compound] the “cell cycle distribution (G2/M, sub-G1/G0)” value [2] was “significantly decreased compared to the DMSO control (p≦0.05)”.
In the case of `O=C(/C=C/c1c[nH]c2ccc(O)cc12)c1ccncc1` [compound 15, trans-3-(5-hydroxy-1H-indol-3-yl)-1-(4-pyridinyl)-2-propen-1-one], the “methuosis-inducing activity compared with compound 2 (MIPP)” value [6] was “greatly reduced activity of the compound in all of the assays”.
For `COc1ccc2[nH]cc(/C=C/C(=O)c3cccnc3)c2c1` [compound 16, trans-3-(5-methoxy-1H-indol-3-yl)-1-(3-pyridinyl)-2-propen-1-one], the “methuosis-inducing activity compared with compound 2 (MIPP)” value [6] was “Loss of activity”.
With `COc1ccc2[nH]cc(/C=C/C(=O)c3cnccn3)c2c1` [compound 17, trans-3-(5-methoxy-1H-indol-3-yl)-1-(pyrazine)-2-propen-1-one] the “methuosis-inducing activity compared with compound 2 (MIPP)” value [6] was “Loss of activity”.
For `COc1ccc2c(c1)c(/C=C/C(=O)c1ccncc1)cn2C` [compound 20, trans-3-(5-methoxy-1-methyl-Indol-3-yl)-1-(4-pyridinyl)-2-propen-1-one], the “methuosis-inducing activity compared with compound 2 (MIPP)” value [6] was “induced some cytoplasmic vacuolization but had modest effects on cell viability”.
In the case of `O=C(/C=C/c1c[nH]c2ccc(O)cc12)c1ccncc1` [compound 21, trans-3-(5-hydroxy-1H-indol-3-yl)-1-(4-pyridinyl)-2-propen-1-one], the “methuosis-inducing activity compared with compound 2 (MIPP)” value [6] was “marked reduction in activity compared to the 5-methoxy compound 19”.
In the case of `COc1ccc2[nH]c(C(F)(F)F)c(/C=C/C(=O)c3ccncc3)c2c1` [compound 124, trans-3-(5-methoxyindol-2-trifluoromethyl-3-yl)-1-(4-pyridinyl)-2-propen-1-one], the “inhibition of tubulin polymerization” value [5] was “partially inhibited tubulin polymerization”.
For `CCOC(=O)c1[nH]c2ccc(OC)cc2c1/C=C/C(=O)c1ccncc1` [compound 125, ethyl trans-3-(5-methoxyindol-2-carboxylate-3-yl)-1-(4-pyridinyl)-2-propen-1-one], the “inhibition of tubulin polymerization” value [5] was “partially inhibited tubulin polymerization”.
For `COc1ccc2[nH]c(C(=O)OC(C)C)c(/C=C/C(=O)c3ccncc3)c2c1` [compound 309, isopropyl trans-3-(5-methoxyindol-2-carboxylate-3-yl)-1-(4-pyridinyl)-2-propen-1-one], the sensitivity to hydrolysis [7] was “most sensitive to hydrolysis during workup and subsequent manipulation or storage”.
For `CCCCC[C@@H](O)[C@H]1C(=O)O[C@H](C)[C@@H](O)/C=C/C=C/C=C/C=C/C=C(\C)[C@@H](O)C[C@H](O)C[C@H](O)C[C@H](O)C[C@H](O)C[C@H](O)C[C@@H]1O` [filipin], the “effect on induction of vacuoles by MIPP” value [4] was “failed to show the typical morphological response to MIPP”.
In the case of “trans-3-[5-((4-carboxyphenyl)-methoxy)-1H-Indol-3-yl)]-1-(4-pyridinyl)-2-propen-1-one [compound 27]”, the “methuosis-inducing activity compared with compound 2 (MIPP)” value [6] was “neither compound 26 nor compound 27 induced methuosis”.
For “trans-3-[5-((4-methylbenzoate)methoxy)-1H-Indol-3-yl)]-1-(4-pyridinyl)-2-propen-1-one [compound 26]”, the “methuosis-inducing activity compared with compound 2 (MIPP)” value [6] was “neither compound 26 nor compound 27 induced methuosis”.
